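Step 1: Grow cells in 96-well plates. Step 2: Expose to compound for 48 hours at 5 concentrations. Step 3: Interpolate endpoints linearly; if unreached, use highest concentration. GI50 = concentration required for 50% inhibition of growth. At the TGI there is no net growth.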
Columns and labels:
Test in all cases: inhibition of tumour cell growth, NCI panel, 48 h
SK-MEL-28 melanoma = tested on: SK-MEL-28 melanoma
SF-295 CNS = tested on: SF-295 CNS
MALME-3M melanoma = tested on: MALME-3M melanoma
SNB-19 CNS = tested on: SNB-19 CNS
COLO 205 colon = tested on: COLO 205 colon
A549 NSCLC = tested on: A549 NSCLC
RXF 393 renal = tested on: RXF 393 renal
K-562 leukemia = tested on: K-562 leukemia
MCF7 breast = tested on: MCF7 breast
KM12 colon = tested on: KM12 colon
TK-10 renal = tested on: TK-10 renal
OVCAR-5 ovarian = tested on: OVCAR-5 ovarian
SF-539 CNS = tested on: SF-539 CNS
BT-549 breast = tested on: BT-549 breast
SN12C renal = tested on: SN12C renal
IGROV1 ovarian = tested on: IGROV1 ovarian
PC-3 prostate = tested on: PC-3 prostate
SW-620 colon = tested on: SW-620 colon
HOP-92 NSCLC = tested on: HOP-92 NSCLC
MDA-MB-231 breast = tested on: MDA-MB-231 breast
M14 melanoma = tested on: M14 melanoma
NCI-H226 lung = tested on: NCI-H226 lung
OVCAR-8 ovarian = tested on: OVCAR-8 ovarian
UACC-257 melanoma = tested on: UACC-257 melanoma
786-0 renal = tested on: 786-0 renal
ACHN renal = tested on: ACHN renal
HS 578T breast = tested on: HS 578T breast
UACC-62 melanoma = tested on: UACC-62 melanoma
NCI-H23 lung = tested on: NCI-H23 lung
OVCAR-4 ovarian = tested on: OVCAR-4 ovarian
HCT-15 colon = tested on: HCT-15 colon
CAKI-1 renal = tested on: CAKI-1 renal
HCC-2998 colon = tested on: HCC-2998 colon
SR leukemia = tested on: SR leukemia
SNB-75 CNS = tested on: SNB-75 CNS
RPMI-8226 leukemia = tested on: RPMI-8226 leukemia
A498 renal = tested on: A498 renal
HCT-116 colon = tested on: HCT-116 colon
SK-MEL-5 melanoma = tested on: SK-MEL-5 melanoma
UO-31 renal = tested on: UO-31 renal
HT29 colon = tested on: HT29 colon
T-47D breast = tested on: T-47D breast
U251 CNS = tested on: U251 CNS
DU-145 prostate = tested on: DU-145 prostate
CCRF-CEM leukemia = tested on: CCRF-CEM leukemia
HL-60(TB) leukemia = tested on: HL-60(TB) leukemia
SK-OV-3 ovarian = tested on: SK-OV-3 ovarian
LOX IMVI melanoma = tested on: LOX IMVI melanoma
MOLT-4 leukemia = tested on: MOLT-4 leukemia
NCI-H522 lung = tested on: NCI-H522 lung
NCI-H460 lung = tested on: NCI-H460 lung
SF-268 CNS = tested on: SF-268 CNS
NCI/ADR-RES ovarian = tested on: NCI/ADR-RES ovarian
MDA-MB-435 = tested on: MDA-MB-435
SK-MEL-2 melanoma = tested on: SK-MEL-2 melanoma
HOP-62 NSCLC = tested on: HOP-62 NSCLC

SMILES: O=C(Nc1cccc(-n2cc(-c3ccncc3)c(-c3ccc(O)c(Cl)c3)n2)c1)c1cc(C(F)(F)F)cc(C(F)(F)F)c1
- GI50 (SK-MEL-28 melanoma): 10.3 µM
- TGI (SK-MEL-28 melanoma): > 50 µM
- GI50 (SF-295 CNS): 2.14 µM
- TGI (SF-295 CNS): 34.2 µM
- GI50 (MALME-3M melanoma): 9.79 µM
- TGI (MALME-3M melanoma): 41.9 µM
- GI50 (SNB-19 CNS): 12.8 µM
- TGI (SNB-19 CNS): > 50 µM
- GI50 (COLO 205 colon): 9.82 µM
- TGI (COLO 205 colon): 23.5 µM
- GI50 (A549 NSCLC): 2.41 µM
- TGI (A549 NSCLC): > 50 µM
- GI50 (RXF 393 renal): 1.25 µM
- TGI (RXF 393 renal): 9.1 µM
- GI50 (K-562 leukemia): 2.57 µM
- TGI (K-562 leukemia): > 50 µM
- GI50 (MCF7 breast): 2.17 µM
- TGI (MCF7 breast): > 50 µM
- GI50 (KM12 colon): 2.05 µM
- TGI (KM12 colon): 12.5 µM
- GI50 (TK-10 renal): 10.9 µM
- TGI (TK-10 renal): > 50 µM
- GI50 (OVCAR-5 ovarian): 8.33 µM
- TGI (OVCAR-5 ovarian): 37.7 µM
- GI50 (SF-539 CNS): 4.78 µM
- TGI (SF-539 CNS): 38.9 µM
- GI50 (BT-549 breast): 4.34 µM
- TGI (BT-549 breast): 46.6 µM
- GI50 (SN12C renal): 7.04 µM
- TGI (SN12C renal): > 50 µM
- GI50 (IGROV1 ovarian): 11.2 µM
- TGI (IGROV1 ovarian): > 50 µM
- GI50 (PC-3 prostate): 2.17 µM
- TGI (PC-3 prostate): > 50 µM
- GI50 (SW-620 colon): 12.2 µM
- TGI (SW-620 colon): > 50 µM
- GI50 (HOP-92 NSCLC): 0.822 µM
- TGI (HOP-92 NSCLC): 4.15 µM
- GI50 (MDA-MB-231 breast): 0.889 µM
- TGI (MDA-MB-231 breast): 2.17 µM
- GI50 (M14 melanoma): 3.3 µM
- TGI (M14 melanoma): > 50 µM
- GI50 (NCI-H226 lung): 10.3 µM
- TGI (NCI-H226 lung): > 50 µM
- GI50 (OVCAR-8 ovarian): 4.88 µM
- TGI (OVCAR-8 ovarian): > 50 µM
- GI50 (UACC-257 melanoma): 16.1 µM
- TGI (UACC-257 melanoma): > 50 µM
- GI50 (786-0 renal): 3.93 µM
- TGI (786-0 renal): 18.3 µM
- GI50 (ACHN renal): 2.79 µM
- TGI (ACHN renal): > 50 µM
- GI50 (HS 578T breast): 5.19 µM
- TGI (HS 578T breast): > 50 µM
- GI50 (UACC-62 melanoma): 10.6 µM
- TGI (UACC-62 melanoma): > 50 µM
- GI50 (NCI-H23 lung): 5.15 µM
- TGI (NCI-H23 lung): > 50 µM
- GI50 (OVCAR-4 ovarian): 3.31 µM
- TGI (OVCAR-4 ovarian): > 50 µM
- GI50 (HCT-15 colon): 2.39 µM
- TGI (HCT-15 colon): > 50 µM
- GI50 (CAKI-1 renal): 2.52 µM
- TGI (CAKI-1 renal): > 50 µM
- GI50 (HCC-2998 colon): 3.06 µM
- TGI (HCC-2998 colon): > 50 µM
- GI50 (SR leukemia): 1.43 µM
- TGI (SR leukemia): 5.68 µM
- GI50 (SNB-75 CNS): 2.35 µM
- TGI (SNB-75 CNS): > 50 µM
- GI50 (RPMI-8226 leukemia): 3.31 µM
- TGI (RPMI-8226 leukemia): 33.1 µM
- GI50 (A498 renal): 9.2 µM
- TGI (A498 renal): > 50 µM
- GI50 (HCT-116 colon): 2.88 µM
- TGI (HCT-116 colon): > 50 µM
- GI50 (SK-MEL-5 melanoma): 4.61 µM
- TGI (SK-MEL-5 melanoma): 16.9 µM
- GI50 (UO-31 renal): 4.15 µM
- TGI (UO-31 renal): > 50 µM
- GI50 (HT29 colon): 5.15 µM
- TGI (HT29 colon): 31.4 µM
- GI50 (T-47D breast): 2.28 µM
- TGI (T-47D breast): 30.8 µM
- GI50 (U251 CNS): 2.54 µM
- TGI (U251 CNS): > 50 µM
- GI50 (DU-145 prostate): 12.6 µM
- TGI (DU-145 prostate): > 50 µM
- GI50 (CCRF-CEM leukemia): 2.21 µM
- TGI (CCRF-CEM leukemia): > 50 µM
- GI50 (HL-60(TB) leukemia): 9.4 µM
- TGI (HL-60(TB) leukemia): 27.4 µM
- GI50 (SK-OV-3 ovarian): 22.8 µM
- TGI (SK-OV-3 ovarian): > 50 µM
- GI50 (LOX IMVI melanoma): 1.86 µM
- TGI (LOX IMVI melanoma): > 50 µM
- GI50 (MOLT-4 leukemia): 2.88 µM
- TGI (MOLT-4 leukemia): > 50 µM
- GI50 (NCI-H522 lung): 1.56 µM
- TGI (NCI-H522 lung): 12.3 µM
- GI50 (NCI-H460 lung): 1.9 µM
- TGI (NCI-H460 lung): > 50 µM
- GI50 (SF-268 CNS): 7.26 µM
- TGI (SF-268 CNS): > 50 µM
- GI50 (NCI/ADR-RES ovarian): 4.72 µM
- TGI (NCI/ADR-RES ovarian): > 50 µM
- GI50 (MDA-MB-435): 4.43 µM
- TGI (MDA-MB-435): > 50 µM
- GI50 (SK-MEL-2 melanoma): 9.33 µM
- TGI (SK-MEL-2 melanoma): 34 µM
- GI50 (HOP-62 NSCLC): 17.5 µM
- TGI (HOP-62 NSCLC): > 50 µM

Source: PubChem BioAssay (NCI)
